Results on 13 molecules are retold here after patent publication EP2208725A1, “Novel specific inhibitors of ubiquitin specific protease 7, the pharmaceutical compositions thereof and their therapeutic applications” (Hybrigenics S.A., priority 2009, dated 2010).

One experiment has as its target T1, UCH-L3 (Homo sapiens, UniProt P15374).
T1 sequence (P15374 1-230): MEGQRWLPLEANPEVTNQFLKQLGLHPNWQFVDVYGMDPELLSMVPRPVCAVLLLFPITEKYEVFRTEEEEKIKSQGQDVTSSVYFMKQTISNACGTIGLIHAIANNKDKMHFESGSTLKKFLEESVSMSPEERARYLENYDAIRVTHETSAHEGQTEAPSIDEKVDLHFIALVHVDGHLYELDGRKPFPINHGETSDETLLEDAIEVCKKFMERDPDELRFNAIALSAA
The experiment is described as follows: UCH-L3 activity assay (Ub-AMC). It is filed as biochemical. The conditions noted are these: 400 nM Ub-AMC, 13 pM enzyme; compounds tested from 200 µM to 91 nM; unit inferred; read-out: Inhibition of cysteine protease activities: Uch-L3. The procedure:
UCH-L3 was diluted in USP buffer (50 mM Tris HCl; 0.5 mM EDTA; 5 mM DTT; 0.01% Triton X-100; Bovine Serum Albumin 0.05 mg.ml^-1 pH7.6). Compounds stocks (100 mM) were stored at -20°C in DMSO. Compounds were tested at different concentrations: from 200 µM to 91 nM. Reactions were performed as duplicates in Black LJL 96 well plates (HE microplates; Molecular Devices; 20 µl final reaction volume). The substrate concentration for UCH-L3 was 400 nM Ub-AMC (Boston Biochem). The concentration of the enzyme (UCH-L3) in specificity assays was 13 pM. The concentrations were determined in order to perform specificity assays under initial velocities at fixed substrate concentration. Compounds were pre-incubated with enzymes for 30 minutes at 25°C. Reactions were initiated by addition of substrate to the plates containing the enzymes (+/- compounds) diluted in assay buffer. Reactions were incubated for 60 minutes at 37°C. Reactions were stopped by adding acetic acid (100 mM final). Readings were performed on a Pherastar Fluorescent Reader (BMG). λ Emission 380 nm; λ Excitation = 460 nm. Data (mean values +/- standard deviation) were analyzed as % of control (no compound) and plotted as percentage versus the Log of the compound concentration using GraphPad (Prism). Data were fitted to a sigmoidal model (variable slope).

The target of a further experiment is T2, human USP7 (Homo sapiens, UniProt Q93009).
T2 construct: Full-length wild-type human USP7; His (N); made in house; host or cells: Spodoptera frugiperda Sf9 (baculovirus, pFastBac-HT)
The experiment is described as follows: USP7 activity assay (Ub-AMC). It is filed as biochemical. The conditions noted are these: 300 nM Ub-AMC, 100 pM enzyme; compounds tested from 200 µM to 91 nM; unit inferred; read-out: Inhibition of cysteine protease activities: USP7. From the text: The cDNA encoding USP7 was obtained by PCR amplification from placenta mRNA. USP7 cDNA was subcloned by PCR into a baculovirus expression vector (pFastBac-HT; Invitrogen). Full-length wild-type human USP7 and its catalytic mutant (cysteine 223 replaced by alanine, C223A) were produced as N-terminally His-tagged fusions in Spodoptera frugiperda cells (Sf9, Invitrogen), using the Bac-to-Bac Baculovirus system from Invitrogen according to the manufacturer's instructions. pFastBac-HT-B-USP7 was used to transform DH10bac cells (Invitrogen), and blue/white selection was carried out on X-gal/IPTG agar plates. Bacmid DNA was prepared by an alkaline lysis procedure. The integrity of the bacmid minipreps and their orientation were checked by PCR, using generic and specific primers. Sf9 cells were cultured in InsectXpress medium (Cambrex) at 27°C and transfected with the corresponding bacmid, using GeneShuttle 40 (Q-BIOgen). Viruses were recovered in the supernatant 72 h after transfection. Viruses were amplified by infecting Sf9 cells in 50 ml InsectXpress medium in a 150 cm^2 cell culture flask with 500 µl of the supernatant from transfected Sf9 cells. Following the second round of amplification, Sf9 cells were recovered by rapid SDS lysis, boiled for 5 min at 100°C, sonicated briefly and centrifuged for 20 min at 14,000 g. Expression levels in infected Sf9 cells were compared with those in uninfected cells. […] Beads were extensively washed (50 mM sodium phosphate buffer pH 7.0, 500 mM NaCl, 10 mM Imidazole, 0.5% Triton X-100 and 10% glycerol) and bound proteins were eluted in wash buffer supplemented with 250 mM Imidazole (Sigma). Eluted fractions were resolved on 4-12% NuPAGE gels (Novex, Invitrogen). Fractions containing high concentrations of purified proteins (purity > 95%) were dialyzed (20 mM Tris HCl pH 7.6, 200 mM NaCl, 1 mM DTT, 1 mM EDTA and 10% glycerol) were aliquoted and snap frozen in liquid nitrogen before storage at -80°C.
USP7 was diluted in USP buffer (50 mM Tris HCl; 0.5 mM EDTA; 5 mM DTT; 0.01 % Triton X-100; Bovine Serum Albumin 0.05 mg.ml^-1 pH7.6). Compounds stocks (100 mM) were stored at -20°C in DMSO. Compounds were tested at different concentrations: from 200 µM to 91 nM.
Reactions were performed as duplicates in Black LJL 96 well plates (HE microplates; Molecular Devices; 20 µl final reaction volume). The substrate concentration for USP7 was 300 nM Ub-AMC (Chem. Biol., 2003, 10, p. 837-846) (Boston Biochem). The concentrations of the enzyme (USP7) in specificity assays was 100 pM. The concentrations were determined in order to perform specificity assays under initial velocities at fixed substrate concentration. Compounds were pre-incubated with enzymes for 30 minutes at 25°C. Reactions were initiated by addition of substrate to the plates containing the enzymes (+/- compounds) diluted in assay buffer. Reactions were incubated for 60 minutes at 37°C. Reactions were stopped by adding acetic acid (100 mM final). Readings were performed on a Pherastar Fluorescent Reader (BMG). λ […]. Data (mean values +/- standard deviation) were analyzed as % of control (no compound) and plotted as percentage versus the Log of the compound concentration using GraphPad (Prism). Data were fitted to a sigmoidal model (variable slope).

T2 sequence (Q93009 whole entry): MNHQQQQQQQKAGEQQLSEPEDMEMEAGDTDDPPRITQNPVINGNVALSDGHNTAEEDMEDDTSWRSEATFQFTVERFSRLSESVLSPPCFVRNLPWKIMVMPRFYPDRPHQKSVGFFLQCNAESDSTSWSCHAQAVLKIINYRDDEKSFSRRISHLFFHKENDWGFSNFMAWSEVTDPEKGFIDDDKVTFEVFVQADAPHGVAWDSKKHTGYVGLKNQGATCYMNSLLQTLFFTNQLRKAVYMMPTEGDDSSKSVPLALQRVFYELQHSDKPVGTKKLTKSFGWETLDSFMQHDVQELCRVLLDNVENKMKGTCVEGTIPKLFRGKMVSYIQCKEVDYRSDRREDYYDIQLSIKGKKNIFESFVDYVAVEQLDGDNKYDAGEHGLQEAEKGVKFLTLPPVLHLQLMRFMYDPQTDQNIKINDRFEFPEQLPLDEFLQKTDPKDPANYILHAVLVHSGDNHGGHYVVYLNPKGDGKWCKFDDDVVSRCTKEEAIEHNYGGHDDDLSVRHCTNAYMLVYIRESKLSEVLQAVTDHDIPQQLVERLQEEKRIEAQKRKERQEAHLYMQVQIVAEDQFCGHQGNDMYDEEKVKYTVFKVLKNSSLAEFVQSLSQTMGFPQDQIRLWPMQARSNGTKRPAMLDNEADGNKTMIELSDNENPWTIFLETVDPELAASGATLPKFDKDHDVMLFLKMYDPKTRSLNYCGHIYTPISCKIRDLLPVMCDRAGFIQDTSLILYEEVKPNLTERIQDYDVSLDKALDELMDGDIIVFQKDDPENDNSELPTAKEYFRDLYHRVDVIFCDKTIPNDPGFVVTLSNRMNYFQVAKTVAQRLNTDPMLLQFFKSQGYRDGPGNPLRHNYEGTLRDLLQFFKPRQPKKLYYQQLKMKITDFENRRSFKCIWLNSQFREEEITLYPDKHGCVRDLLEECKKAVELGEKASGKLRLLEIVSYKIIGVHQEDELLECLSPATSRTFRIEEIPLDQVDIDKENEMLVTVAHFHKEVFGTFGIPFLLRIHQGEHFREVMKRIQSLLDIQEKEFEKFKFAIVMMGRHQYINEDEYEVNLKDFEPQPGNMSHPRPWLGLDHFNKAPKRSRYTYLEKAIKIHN

For `CC(=O)C1=C(O)C(=O)N(CCc2ccc(Cl)cc2)C1c1ccc(Br)cc1` (centres unmarked) [Example 25, 4-acetyl-5-(4-bromo-phenyl)-1-[2-(4-chloro-phenyl)-ethyl]-3-hydroxy-1,5-dihydro-pyrrol-2-one], the IC50 at UCH-L3 was over 200 µM; at human USP7, 3.1 µM.
The like results for `CC(=O)C1=C(O)C(=O)N(CCc2ccc(Br)cc2)C1c1ccc(Br)cc1` (centres unmarked) [Example 26, 4-acetyl-5-(4-bromo-phenyl)-1-[2-(4-bromo-phenyl)-ethyl]-3-hydroxy-1,5-dihydro-pyrrol-2-one] were, in that order, over 200 µM and 2.7 µM.
Taken in the same sequence, the figures for `CC(=O)C1=C(O)C(=O)N(CCc2ccc(Cl)c(Cl)c2)C1c1ccc(Br)cc1` (centres unmarked) [Example 28, 4-acetyl-5-(4-bromo-phenyl)-1-[2-(3,4-dichloro-phenyl)-ethyl]-3-hydroxy-1,5-dihydro-pyrrol-2-one] were over 200 µM and 1.61 µM.
The like results for `COc1cccc(CCN2C(=O)C(O)=C(C(C)=O)C2c2ccc(Br)cc2)c1` (centres unmarked) [Example 30, 4-acetyl-5-(4-bromo-phenyl)-3-hydroxy-1-[2-(3-methoxyphenyl)-ethyl]-1,5-dihydro-pyrrol-2-one] were, in that order, over 200 µM and 11.1 µM.
Regarding `COc1ccc(CCN2C(=O)C(O)=C(C(C)=O)C2c2ccc(Br)cc2)cc1` (centres unmarked) [Example 32, 4-acetyl-5-(4-bromo-phenyl)-3-hydroxy-1-[2-(4-methoxyphenyl)-ethyl]-1,5-dihydro-pyrrol-2-one], the IC50 at UCH-L3 is over 200 µM; at human USP7 it was 5.28 µM.
The like results for `CC(=O)C1=C(O)C(=O)N(CCc2ccc(F)cc2)C1c1ccc(Br)cc1` (centres unmarked) [Example 33, 4-acetyl-5-(4-bromo-phenyl)-3-hydroxy-1-[2-(4-fluorophenyl)-ethyl]-1,5-dihydro-pyrrol-2-one] were, in that order, over 200 µM and 3.05 µM.
The like results for `CCOc1ccc(CCN2C(=O)C(O)=C(C(C)=O)C2c2ccc(Br)cc2)cc1` (centres unmarked) [Example 34, 4-acetyl-5-(4-bromo-phenyl)-3-hydroxy-1-[2-(4-ethoxy-phenyl)-ethyl]-1,5-dihydro-pyrrol-2-one] were, in that order, over 200 µM and 6.6 µM.
The like results for `CC(=O)C1=C(O)C(=O)N(CCc2ccccc2)C1c1ccc2c(c1)OCO2` (centres unmarked) [Example 37, 4-acetyl-5-benzo[1,3]dioxol-5-yl-3-hydroxy-1-phenethyl-1,5-dihydro-pyrrol-2-one] were, in that order, over 200 µM and 7.03 µM.
Consider `CC(=O)C1=C(O)C(=O)N(CCc2ccccc2)C1c1ccc(Br)c(Br)c1` (centres unmarked) [Example 41, 4-acetyl-5-(3,4-dibromo-phenyl)-3-hydroxy-1-phenethyl-1,5-dihydro-pyrrol-2-one], for which the IC50 on UCH-L3 was over 200 µM; on human USP7 it was 8.98 µM.
The like results for `CC(=O)C1=C(O)C(=O)N(CCc2ccccc2)C1c1cccnc1Cl` (centres unmarked) [Example 42, 4-acetyl-5-(2-chloro-pyridin-3-yl)-3-hydroxy-1-phenethyl-1,5-dihydro-pyrrol-2-one] were, in that order, over 200 µM and 12 µM.
The like results for `CC(=O)C1=C(O)C(=O)N(CCc2ccc(Br)cc2)C1c1ccc(Cl)cc1` (centres unmarked) [Example 45, 4-Acetyl-5-(4-chlorophenyl)-1-[2-(4-bromophenyl)-ethyl]-3-hydroxy-1,5-dihydro-pyrrol-2-one] were, in that order, over 200 µM and 4.2 µM.
Taken in the same sequence, the figures for `CC(=O)C1=C(O)C(=O)N(CCc2ccc(Cl)cc2)C1c1ccc(Cl)cc1` (centres unmarked) [Example 46, 4-Acetyl-5-(4-chlorophenyl)-1-[2-(4-chlorophenyl)-ethyl]-3-hydroxy-1,5-dihydro-pyrrol-2-one] were over 200 µM and 4.4 µM.
For `CC(=O)C1=C(O)C(=O)N(CCc2ccc(Cl)cc2Cl)C1c1ccc(Br)cc1` (centres unmarked) [Example 47, 4-Acetyl-5-(4-bromophenyl)-1-[2-(2,4-dichlorophenyl)-ethyl]-3-hydroxy-1,5-dihydro-pyrrol-2-one], the IC50 at UCH-L3 is over 200 µM; at human USP7 it was 1.9 µM.
